Data published in the OligoGym collection.
Bases are written 5' to 3'; sugars and linkages follow in the same order, as letters with counts (s phosphorothioate, o phosphodiester; PS: all linkages phosphorothioate). C may stand for cytosine or 5-methylcytosine; the collection does not tell. l = locked nucleic acid (LNA); d = 2'-deoxy (DNA)

Target: HIF1A
Experiment: HeLa, 100 nM transfected, 24 h, mean of 3
Conditions: ASO

| Sequence | caspase activation (% of PBS control) |
| --- | --- |
| TGGCAAGCATCCT (sugars lldlddddddldl, PS) | 369 |
| TGGCAAGCATCCTGTA (sugars l1 d1 l1 d8 l5, PS) | 417 |
| TGGCAAGCATCCTGTA (sugars l1 d1 l1 d9 l4, PS) | 379 |
| TGGCAAGCATCCTGTA (sugars l1 d1 l1 d10 l3, PS) | 188 |
| TGGCAAGCATCCTGTA (sugars l1 d1 l1 d11 l2, PS) | 135 |
| TGGCAAGCATCCTGTA (sugars l1 d1 l1 d12 l1, PS) | 180 |
| TGGCAAGCATCCTGTA (sugars l1 d1 l2 d7 l5, PS) | 415 |
| TGGCAAGCATCCTGTA (sugars l1 d1 l2 d8 l4, PS) | 398 |
| TGGCAAGCATCCTGTA (sugars l1 d1 l2 d9 l3, PS) | 479 |
| TGGCAAGCATCCTGTA (sugars l1 d1 l2 d10 l2, PS) | 342 |
| TGGCAAGCATCCTGTA (sugars l1 d1 l2 d11 l1, PS) | 324 |
| TGGCAAGCATCCTGTA (sugars l1 d1 l3 d6 l5, PS) | 482 |
| TGGCAAGCATCCTGTA (sugars l1 d1 l3 d7 l4, PS) | 395 |
| TGGCAAGCATCCTGTA (sugars l1 d1 l3 d8 l3, PS) | 448 |
| TGGCAAGCATCCTGTA (sugars l1 d1 l3 d9 l2, PS) | 463 |
| TGGCAAGCATCCTGTA (sugars l1 d1 l3 d10 l1, PS) | 595 |
| TGGCAAGCATCCTGTA (sugars l1 d2 l1 d7 l5, PS) | 416 |
| TGGCAAGCATCCTGTA (sugars l1 d2 l1 d8 l4, PS) | 398 |
| TGGCAAGCATCCTGTA (sugars l1 d2 l1 d9 l3, PS) | 254 |
| TGGCAAGCATCCTGTA (sugars l1 d2 l1 d10 l2, PS) | 196 |
| TGGCAAGCATCCTGTA (sugars l1 d2 l1 d11 l1, PS) | 178 |
| TGGCAAGCATCCTGTA (sugars l1 d2 l2 d6 l5, PS) | 366 |
| TGGCAAGCATCCTGTA (sugars l1 d2 l2 d7 l4, PS) | 435 |
| TGGCAAGCATCCTGTA (sugars l1 d2 l2 d8 l3, PS) | 419 |

| Sequence | caspase activation (% of PBS control) |
| --- | --- |
| TGGCAAGCATCCTGTA (sugars l1 d2 l2 d9 l2, PS) | 380 |
| TGGCAAGCATCCTGTA (sugars l1 d2 l2 d10 l1, PS) | 367 |
| TGGCAAGCATCCTGTA (sugars l1 d3 l1 d6 l5, PS) | 396 |
| TGGCAAGCATCCTGTA (sugars l1 d3 l1 d7 l4, PS) | 235 |
| TGGCAAGCATCCTGTA (sugars l1 d3 l1 d8 l3, PS) | 172 |
| TGGCAAGCATCCTGTA (sugars l1 d3 l1 d9 l2, PS) | 135 |
| TGGCAAGCATCCTGTA (sugars l1 d3 l1 d10 l1, PS) | 146 |
| TGGCAAGCATCCTGTA (sugars l1 d10 l1 d1 l3, PS) | 348 |
| TGGCAAGCATCCTGTA (sugars l1 d10 l1 d2 l2, PS) | 261 |
| TGGCAAGCATCCTGTA (sugars l1 d10 l1 d3 l1, PS) | 199 |
| TGGCAAGCATCCTGTA (sugars l1 d10 l2 d1 l2, PS) | 444 |
| TGGCAAGCATCCTGTA (sugars l1 d10 l2 d2 l1, PS) | 346 |
| TGGCAAGCATCCTGTA (sugars l1 d10 l3 d1 l1, PS) | 381 |
| TGGCAAGCATCCTGTA (sugars l1 d10 l5, PS) | 480 |
| TGGCAAGCATCCTGTA (sugars l1 d11 l1 d1 l2, PS) | 315 |
| TGGCAAGCATCCTGTA (sugars l1 d11 l1 d2 l1, PS) | 190 |
| TGGCAAGCATCCTGTA (sugars l1 d11 l2 d1 l1, PS) | 231 |
| TGGCAAGCATCCTGTA (sugars l1 d11 l4, PS) | 346 |
| TGGCAAGCATCCTGTA (sugars l1 d12 l1 d1 l1, PS) | 150 |
| TGGCAAGCATCCTGTA (sugars l1 d12 l3, PS) | 217 |
| TGGCAAGCATCCTGTA (sugars l1 d13 l2, PS) | 170 |
| TGGCAAGCATCCTGTA (sugars l1 d14 l1, PS) | 201 |
| TGGCAAGCATCCTGTA (sugars l2 d1 l1 d7 l5, PS) | 427 |
| TGGCAAGCATCCTGTA (sugars l2 d1 l1 d8 l4, PS) | 393 |

| Sequence | caspase activation (% of PBS control) |
| --- | --- |
| TGGCAAGCATCCTGTA (sugars l2 d1 l1 d9 l3, PS) | 520 |
| TGGCAAGCATCCTGTA (sugars l2 d1 l1 d10 l2, PS) | 501 |
| TGGCAAGCATCCTGTA (sugars l2 d1 l1 d11 l1, PS) | 378 |
| TGGCAAGCATCCTGTA (sugars l2 d1 l2 d6 l5, PS) | 477 |
| TGGCAAGCATCCTGTA (sugars l2 d1 l2 d7 l4, PS) | 394 |
| TGGCAAGCATCCTGTA (sugars l2 d1 l2 d8 l3, PS) | 407 |
| TGGCAAGCATCCTGTA (sugars l2 d1 l2 d9 l2, PS) | 419 |
| TGGCAAGCATCCTGTA (sugars l2 d1 l2 d10 l1, PS) | 401 |
| TGGCAAGCATCCTGTA (sugars l2 d2 l1 d6 l5, PS) | 432 |
| TGGCAAGCATCCTGTA (sugars l2 d2 l1 d7 l4, PS) | 366 |
| TGGCAAGCATCCTGTA (sugars l2 d2 l1 d8 l3, PS) | 397 |
| TGGCAAGCATCCTGTA (sugars l2 d2 l1 d9 l2, PS) | 391 |
| TGGCAAGCATCCTGTA (sugars l2 d2 l1 d10 l1, PS) | 423 |
| TGGCAAGCATCCTGTA (sugars l2 d9 l1 d1 l3, PS) | 369 |
| TGGCAAGCATCCTGTA (sugars l2 d9 l1 d2 l2, PS) | 424 |
| TGGCAAGCATCCTGTA (sugars l2 d9 l1 d3 l1, PS) | 413 |
| TGGCAAGCATCCTGTA (sugars l2 d9 l2 d1 l2, PS) | 401 |
| TGGCAAGCATCCTGTA (sugars l2 d9 l2 d2 l1, PS) | 422 |
| TGGCAAGCATCCTGTA (sugars l2 d9 l3 d1 l1, PS) | 352 |
| TGGCAAGCATCCTGTA (sugars l2 d9 l5, PS) | 368 |
| TGGCAAGCATCCTGTA (sugars l2 d10 l1 d1 l2, PS) | 376 |
| TGGCAAGCATCCTGTA (sugars l2 d10 l1 d2 l1, PS) | 377 |
| TGGCAAGCATCCTGTA (sugars l2 d10 l2 d1 l1, PS) | 366 |
